Data on four compounds can be found in patent publication US8507498B2, “4, 6-disubstituted aminopyrimidine derivatives as inhibitors of protein kinases” (Ingenium Pharmaceuticals GmbH, priority 2007, dated 2013).

In data set [1] the target is CDK1/CycB (Homo sapiens, UniProt P06493). The data set can be described thus: General kinase assay (Example 80). The settings on record: ATP 1 μM. The class given is biochemical. As to the method: (§1) The inhibitory effect of compounds according to the present invention on the activity of protein kinases can be measured according to the following protocol: • Reaction Volume: 40 μl • Reaction Time: 60 min • Reaction Temperature: room temperature • Assay Plate: 96 well U bottom plate (Greiner, 650161) • MultiScreen-PH Plate: 96 well MAPH Filter Plates (Millipore, MAPHNOB50) • Filter Washing Solution: 0.75% H3PO4 • Scintillation Liquid Supermix Liquid Scintillator (PerkinElmer, 1200-439) Controls: • Negative Control (C−): 100 mM EDTA (Ethylenediaminetetraacetic acid), no Inhibitor • Positive Control (C+): no Inhibitor Reaction Buffer: • 20 mM Tris (Tris(hydroxymethyl)aminomethane hydrochloride), pH 7.5 • 10 mM MgCl2 • 1 mM DTT Final Assay Concentrations: • Kinase: Use kinase conc. yielding 10% ATP turn over. • ATP: 1 μM • Adenosine 5′-[-^33P]triphosphate:12.5 μCi/ml (Amersham Biosciences, BF1000) • Substrate: Myelin Basic Protein 10 μM (Invitrogen, 13228-010) Pipetting Sequence: • 1) Add 10 μl 4 fold concentrated Substrate+4 fold concentrated ATP in […] concentrated Reaction Buffer to each well of Assay Plate • 2) Add 10 μl 4 fold concentrated inhibitor in 4% DMSO in H2O to each well except to C− and C+wells • 3) Add 10 μl 4% DMSO in H2O to C− and C+wells • 4) Add 10 μl 500 mM EDTA in H2O to C− wells • 5) Add 10 μl 50 μCi/ml Adenosine 5′-[-^33P]triphosphate in H2O to each well • 6) Add 10 μl 4 fold concentrated kinase in Reaction Buffer to each well • 7) Incubate 1 hr at room temperature • 8) Add 10 μl 50 mM EDTA in H2O to each well except to C− wells • 9) Prepare MAPH plates by adding 200 μl 0.75% H3PO4 to each well • 10) Exhaust 0.75% H3PO4 using Millipore vacuum station • 11) Add 60 μl 0.75% H3PO4 to each well of MAPH Filter Plate • 12) Transfer 30 μl sample per well from Assay Plate to corresponding well of MAPH Filter Plate • 13) Incubate 30 min at room temperature • 14) Wash each well of MAPH Filter Plates 3× with 200 μl 0.75% H3PO4 using Millipore vacuum station. • 15) Add 20 μl Scintillation Liquid to each well of MAPH Filter Plate • 16) Seal MAPH Filter Plate • 17) Store MAPH Filter Plate 30 min in darkness • 18) Quantify radioactivity Results:
(§2) IC50s were calculated for each kinase based on serial dilutions.

For data set [2], the target named is CDK4/CycD1 (Homo sapiens, UniProt P11802). As to the kind of experiment: General kinase assay (Example 80). The class given is biochemical. The settings on record: ATP 1 μM. As to the method:
as §1, §2

Data set [3] concerns the target T1, CDK2/CycA (Homo sapiens, UniProt P24941).
T1 construct: purchased ProQinase (Freiburg, Germany)
The data set can be described thus: General kinase assay (Example 80). The class given is biochemical. The settings on record: ATP 1 μM. As to the method: (§3) Kinase assays determining CDK2/CyclinA and CDK5/p35 activity were performed as described by the manufacturer's recommendations (ProQinase (Freiburg, Germany) for CDK2/CyclinA and Upstate for CDK5/p35).
as §1, §2

Data set [4] concerns the target T2, CDK5/p35 (Homo sapiens, UniProt Q00535).
T2 construct: purchased Upstate
The data set can be described thus: General kinase assay (Example 80). In kind it is biochemical. The settings on record: ATP 1 μM. As to the method:
as §3, §1, §2

Data set [5] deals with T3, CDK9/CycT1 (Homo sapiens, UniProt P50750).
T3 construct: made in house; host or cells: HEK293 cells (ATCC CRL-1573), recombinant adenovirus
As to the kind of experiment: General kinase assay (Example 80). The following applies: ATP 1 μM. The class given is biochemical.
Description: Both cDNA fragments were cloned by PCR into pDONR201 vectors using the gateway recombination system (Invitrogen) according to the manufacturer's recommendations. The fragments were subcloned into a gateway-adapted shuttle vector (pPM7) for production of recombinant adenovirus. All plasmids were verified by restriction digests and sequencing analysis.
Expression and purification of CDK9/Cyclin T1 proteins was in principle performed as described by Cotten et al. (M. Cotten et al., Nucleic acids research, 2003, 31(28), 128).
Kinase assays using CDK9/Cyclin T1 were performed in principle as described by Cotten et al. (M. Cotten et al., Nucleic acids research, 2003, 31(28), 128).
as §2

Data set [6] has as its system HCT116. The data set can be described thus: Growth assay using Alamar Blue. The class given is cell-based. The settings on record: Homo sapiens, HCT-116, read-out: IC50 against cell line HCT116. As to the method: (§4) Cells were seeded in 384-well plates (white, Greiner: 781080) at a density of […] cells per well in medium (RPMI+10% FCS).
(§5) Cells were incubated in 25 μl medium/well and were grown over night at 37° C., 6% CO2. On the following day compounds were added in DMSO in serial fold dilutions in fresh medium. Negative control wells were incubated without cells. Positive control wells were incubated with cells but without inhibitors (DMSO only). These wells served as data points to determine relative growth (given in % of the DMSO control [=100%]). The cell number was determined by addition of 5 μL Alamar Blue™ (Biosource DAL1100) to each well. Fluorescence was measures with an Analyst GT machine (Molecular Devices) at an excitation wavelength of 560 nm and an emission wavelength of 590 nm.
(§6) The following cell lines were used: A2780 (ECACC order number 93112519; human ovarian carcinoma; Semin Oncol (1984) 11:285; Cancer Res (1987) 47:414), B16F1 (ATCC order number CRL-6323; melanoma; Nat. New Biol. 242: 148-149, 1973); HCT116 (ATCC order number CCL-247; Colorectal carcinoma; Cancer Res (1981) 41:1751; Cancer (1995) 76:201), HT29 (ATTC order number HTB-38; colorectal adenocarcinoma; J. Biol. Chem. 271: 9490-9496, 1996) HepG2 (ATCC order number HB-8065; hepatocellular carcinoma; J. Biol. Chem. 271: 10073-10078, 1996), J774 (ATCC order number TIB-67; reticulum cell sarcoma; J. Biol. Chem. 271: 18431-18436, 1996); MCF7 (ATCC order number HTB-22; Breast carcinoma; J Natl Cancer Inst (1973) 51:1409; Cancer Res (1993) 53:5193), PM1 (obtainable from the National Institute of Allergy and Infectious Diseases; Division of AIDS via the NIH AIDS Research & Reference Reagent Program; Lusso P et al (1995), J Virol 69: 3712-3720) and U373-MAGI-CCR5 (obtainable from the National Institute of Allergy and Infectious Diseases; Division of AIDS via the NIH AIDS Research & Reference Reagent Program; Kensinger R D et al (2004), Antimicrob Agents Chemother 48: 1614-1623).
(§7) IC50s were calculated for each cell line based on serial dilutions.

The test system of data set [7] is U373-MAGI-CCR5E. As to the kind of experiment: Growth assay using Alamar Blue. In kind it is cell-based. The settings on record: read-out: IC50 against cell line U373-MAGI-CCR5E. As to the method:
as §4, §5, §6, §7
(Alamar Blue is a resazurin reagent that responds to reducing activity.)

Data set [8] deals with CDK6/CycD3 (Homo sapiens, UniProt Q00534). The data set can be described thus: General kinase assay (Example 80). The following applies: ATP 1 μM. In kind it is biochemical. As to the method: as §1, §2
In data set [9] the test system is HepG2. As to the kind of experiment: Growth assay using Alamar Blue. The class given is cell-based. The following applies: Homo sapiens, read-out: IC50 against cell line HepG2. As to the method: as §4, §5, §6, §7
The subject of data set [10] is PM1. The data set can be described thus: Growth assay using Alamar Blue. The settings on record: read-out: IC50 against cell line PM1. The class given is cell-based. As to the method:
as §4, §5, §6, §7

In data set [11] the test system is SNI mice (mechanical allodynia). As to the kind of experiment: Spared nerve injury (SNI) model, von Frey assay. In kind it is in vivo. The following applies: 30 mg/kg per os 30 min prior to measurement, day 107 post SNI, vs vehicle. As to the method: Wildtype mice (strain C3HeB/FeJ) (age, sex and weight matched) were anesthetized with Hypnorm (0.315 mg/ml fentanyl citrate+10 mg/ml fluanisone; Janssen)/Hypnovel (5 mg/ml midazolam; Roche Applied Sciences)/water at a ratio of 1:1:2 at 4 μl/g prior to surgical preparation.
Subsequently, an incision was made under aseptic precautions in the ipsi-lateral right hind leg of all mice just above the level of the knee, exposing the three terminal branches of the sciatic nerve: the common peroneal, tibial, and sural nerves. The common peroneal and tibial nerves were ligated tightly with 7/0 silk and sectioned distal to the ligation removing ≈2 mm of distal nerve stump. The sural branch remained untouched during the procedure (denoted herein “SNI ipsi”). The overlying muscle and skin was sutured, and the animals were allowed to recover and to permit wound healing. […]
Injection of inhibitor or vehicle, and subsequent measurements of paw withdrawal threshold to mechanical stimulation in von Frey assays were performed at day 107 post SNI. Reflex nociceptive responses to mechanical stimulation were measured in a von Frey assay 30 min after each injection. […]
Mechanical thresholds of SNI mice were quantified using the up-down method based on Chaplan et al. (1994) and Malmberg and Basbaum (1998). […]

Structures are written as SMILES. Entries after “also recorded” stand apart in the source; their conditions may differ.

T2 sequence (Q00535 whole entry): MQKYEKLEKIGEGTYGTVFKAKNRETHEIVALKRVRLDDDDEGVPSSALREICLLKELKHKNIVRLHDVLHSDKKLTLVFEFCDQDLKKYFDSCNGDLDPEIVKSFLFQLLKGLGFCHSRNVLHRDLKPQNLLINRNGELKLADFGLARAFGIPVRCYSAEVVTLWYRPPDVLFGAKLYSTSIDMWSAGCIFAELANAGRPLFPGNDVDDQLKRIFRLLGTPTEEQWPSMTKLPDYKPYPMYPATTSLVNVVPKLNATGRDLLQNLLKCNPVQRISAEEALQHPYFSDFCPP
T2 sequence (Q15078 whole entry partner): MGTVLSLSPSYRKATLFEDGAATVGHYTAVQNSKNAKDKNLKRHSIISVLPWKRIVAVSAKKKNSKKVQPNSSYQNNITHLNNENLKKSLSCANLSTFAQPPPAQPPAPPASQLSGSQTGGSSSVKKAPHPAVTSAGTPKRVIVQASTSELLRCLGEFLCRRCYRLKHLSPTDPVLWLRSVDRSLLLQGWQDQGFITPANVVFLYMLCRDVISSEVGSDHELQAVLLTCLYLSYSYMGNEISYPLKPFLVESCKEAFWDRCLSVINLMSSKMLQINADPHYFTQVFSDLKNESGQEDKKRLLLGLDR
T3 sequence (P50750 whole entry, species assumed): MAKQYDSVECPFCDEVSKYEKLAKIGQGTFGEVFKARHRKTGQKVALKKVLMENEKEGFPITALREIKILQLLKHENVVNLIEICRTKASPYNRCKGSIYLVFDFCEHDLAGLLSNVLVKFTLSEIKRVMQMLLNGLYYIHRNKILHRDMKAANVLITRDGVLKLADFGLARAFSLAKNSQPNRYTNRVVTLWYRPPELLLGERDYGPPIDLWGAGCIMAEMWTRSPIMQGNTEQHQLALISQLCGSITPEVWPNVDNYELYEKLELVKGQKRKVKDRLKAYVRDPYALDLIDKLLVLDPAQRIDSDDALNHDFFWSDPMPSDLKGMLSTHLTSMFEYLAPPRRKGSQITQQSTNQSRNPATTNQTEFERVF
T3 sequence (O60563 whole entry partner, species assumed): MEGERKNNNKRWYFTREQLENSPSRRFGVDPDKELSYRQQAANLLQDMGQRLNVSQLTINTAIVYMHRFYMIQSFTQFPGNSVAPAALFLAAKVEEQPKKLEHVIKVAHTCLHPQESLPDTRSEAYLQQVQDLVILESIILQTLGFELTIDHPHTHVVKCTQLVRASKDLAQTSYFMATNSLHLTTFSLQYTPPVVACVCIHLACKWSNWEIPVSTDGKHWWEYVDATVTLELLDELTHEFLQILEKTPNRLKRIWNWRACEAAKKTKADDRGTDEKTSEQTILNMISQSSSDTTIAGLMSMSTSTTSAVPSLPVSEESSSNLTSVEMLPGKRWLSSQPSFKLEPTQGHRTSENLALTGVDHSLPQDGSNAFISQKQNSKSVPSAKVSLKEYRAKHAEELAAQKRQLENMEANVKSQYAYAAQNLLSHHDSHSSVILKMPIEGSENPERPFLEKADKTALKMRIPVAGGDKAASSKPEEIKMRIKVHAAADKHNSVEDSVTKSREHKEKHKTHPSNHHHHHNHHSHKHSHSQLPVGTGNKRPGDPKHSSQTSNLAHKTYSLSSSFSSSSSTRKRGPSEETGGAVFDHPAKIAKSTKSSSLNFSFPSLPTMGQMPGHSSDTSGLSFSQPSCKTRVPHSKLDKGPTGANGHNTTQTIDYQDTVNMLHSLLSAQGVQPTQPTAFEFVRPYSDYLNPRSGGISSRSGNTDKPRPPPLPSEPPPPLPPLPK
Chain of CDK1/CycB (P06493 whole entry, species assumed): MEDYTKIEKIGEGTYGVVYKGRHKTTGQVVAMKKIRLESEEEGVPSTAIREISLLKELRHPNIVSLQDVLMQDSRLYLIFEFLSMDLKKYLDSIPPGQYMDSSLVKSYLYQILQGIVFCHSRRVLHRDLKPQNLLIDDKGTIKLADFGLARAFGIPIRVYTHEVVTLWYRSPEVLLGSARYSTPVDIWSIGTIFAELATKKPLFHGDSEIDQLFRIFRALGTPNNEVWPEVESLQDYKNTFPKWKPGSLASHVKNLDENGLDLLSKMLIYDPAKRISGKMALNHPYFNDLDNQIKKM
Chain of CDK1/CycB (P14635 whole entry partner, species assumed): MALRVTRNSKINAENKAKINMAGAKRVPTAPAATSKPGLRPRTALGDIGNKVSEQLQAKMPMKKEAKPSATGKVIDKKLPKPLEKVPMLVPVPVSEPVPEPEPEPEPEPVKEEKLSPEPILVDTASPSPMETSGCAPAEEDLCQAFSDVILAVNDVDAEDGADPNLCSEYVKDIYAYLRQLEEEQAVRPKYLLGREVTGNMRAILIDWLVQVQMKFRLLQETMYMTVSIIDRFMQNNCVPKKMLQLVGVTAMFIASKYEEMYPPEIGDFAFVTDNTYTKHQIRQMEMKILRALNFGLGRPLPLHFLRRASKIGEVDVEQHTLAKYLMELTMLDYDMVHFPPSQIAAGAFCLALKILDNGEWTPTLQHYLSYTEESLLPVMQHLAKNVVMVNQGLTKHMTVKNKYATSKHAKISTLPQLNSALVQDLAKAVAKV
Chain of CDK4/CycD1 (P11802 whole entry, species assumed): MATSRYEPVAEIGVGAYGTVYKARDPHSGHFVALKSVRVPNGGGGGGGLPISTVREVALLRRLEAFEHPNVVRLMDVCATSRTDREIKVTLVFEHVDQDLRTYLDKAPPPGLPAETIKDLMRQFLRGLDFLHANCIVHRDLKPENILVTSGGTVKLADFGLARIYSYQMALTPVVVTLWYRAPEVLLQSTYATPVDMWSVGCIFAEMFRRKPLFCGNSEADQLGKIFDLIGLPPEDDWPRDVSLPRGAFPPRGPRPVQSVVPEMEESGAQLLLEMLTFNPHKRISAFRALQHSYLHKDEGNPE
Chain of CDK4/CycD1 (P24385 whole entry partner, species assumed): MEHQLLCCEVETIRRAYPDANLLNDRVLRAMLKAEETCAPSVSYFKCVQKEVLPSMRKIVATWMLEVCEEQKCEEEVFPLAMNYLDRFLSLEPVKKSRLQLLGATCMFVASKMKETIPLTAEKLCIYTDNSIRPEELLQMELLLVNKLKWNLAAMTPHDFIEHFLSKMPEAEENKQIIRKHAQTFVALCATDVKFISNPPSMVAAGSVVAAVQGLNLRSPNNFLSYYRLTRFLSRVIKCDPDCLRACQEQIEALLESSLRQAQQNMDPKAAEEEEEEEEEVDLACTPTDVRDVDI
Chain of CDK6/CycD3 (Q00534 whole entry, species assumed): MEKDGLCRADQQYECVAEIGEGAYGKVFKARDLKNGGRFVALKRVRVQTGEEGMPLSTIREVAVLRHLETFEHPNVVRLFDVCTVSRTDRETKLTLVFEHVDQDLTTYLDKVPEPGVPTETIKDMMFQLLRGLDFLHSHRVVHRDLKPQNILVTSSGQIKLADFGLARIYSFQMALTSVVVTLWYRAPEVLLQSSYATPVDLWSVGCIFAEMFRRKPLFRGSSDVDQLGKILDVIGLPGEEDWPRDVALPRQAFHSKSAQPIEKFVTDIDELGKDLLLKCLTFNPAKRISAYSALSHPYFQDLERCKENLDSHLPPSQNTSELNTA
Chain of CDK6/CycD3 (P30281 whole entry partner, species assumed): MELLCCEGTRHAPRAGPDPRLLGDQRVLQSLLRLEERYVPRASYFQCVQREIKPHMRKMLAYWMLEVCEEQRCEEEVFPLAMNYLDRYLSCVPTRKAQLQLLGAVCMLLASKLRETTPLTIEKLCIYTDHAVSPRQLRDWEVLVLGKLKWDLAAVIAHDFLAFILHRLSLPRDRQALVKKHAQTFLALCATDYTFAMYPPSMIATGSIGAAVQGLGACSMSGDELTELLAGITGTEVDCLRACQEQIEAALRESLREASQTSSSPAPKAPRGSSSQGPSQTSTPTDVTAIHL

As usually defined, the IC50 is the concentration that gives 50% inhibition. With `COCCNS(=O)(=O)Cc1cccc(Nc2cc(-c3ccccc3OC)ncn2)c1` [Compound 86, N-(2-methoxy-ethyl)-C-{3-[6-(2-methoxy-phenyl)-pyrimidin-4-ylamino]-phenyl}-methanesulfonamide], the IC50 in data set [1] is under 10 µM; in data set [2] it was over 10 µM; in data set [3] it was under 10 µM; in data set [4] it was under 10 µM; in data set [5], under 0.5 µM; in [6], under 5 µM.
For orientation: melting point means the temperature, or range, at which the solid turns liquid. For the compound `COc1ccccc1-c1cc(Nc2cccc(CS(=O)(=O)N(C)C)c2)ncn1` [Compound 20, C-{3-[6-(2-methoxy-phenyl)-pyrimidin-4-ylamino]-phenyl}-N,N-dimethyl-methanesulfonamide], the melting point lay within 187.5 to 188.8 °C. In data set [1], this compound yielded an IC50 of under 5 µM. In data set [3], this compound showed an IC50 of under 2 µM. In [4], this compound displayed an IC50 of under 5 µM. Moreover, the IC50 in data set [5] is under 0.5 µM. The IC50 in [6] is under 5 µM. Further, the IC50 in data set [7] was under 10 µM.
Turning to `CNS(=O)(=O)Cc1cccc(Nc2cc(-c3ccccc3OC)ncn2)c1` [Compound 49, C-{3-[6-(2-methoxy-phenyl)-pyrimidin-4-ylamino]-phenyl}-N-methyl-methanesulfonamide], the IC50 was under 5 µM in data set [1]; under 10 µM in data set [2]; under 10 µM in data set [8]; under 2 µM in [3]; under 5 µM in [4]; under 0.1 µM in data set [5]. Further, the IC50 in [6] was under 2 µM; in [9], over 10 µM; in data set [10], under 5 µM.
On to `CCOc1ccccc1-c1cc(Nc2cccc(CS(=O)(=O)NC)c2)ncn1` [Compound 43, C-{3-[6-(2-Ethoxy-phenyl)-pyrimidin-4-ylamino]-phenyl}-N-methyl-methanesulfonamide], for which, in data set [11], the “paw withdrawal threshold to mechanical stimulation (von Frey), mechanical allodynia” value is recorded as “hypoalgesic effect; also recorded: significant increase of threshold values”.
